Values of other authors as cited in patent US20230338329A1, “C[…] COMPOSITION AND METHOD OF MANUFACTURING” (priority 2022, published 2023).

Conditions: hydrophilic-lipophilic balance value
In the case of polyoxyethylene sorbitan monooleate, the HLB is given as 15. For Sorbitan monooleate [Span 80], the HLB is listed as 4.9. For alkyl phenyl polyoxyethylene ether, the HLB is listed as 14.5. In the case of `CCCCCCCCCCCCOS(=O)(=O)[O-].[Na+]` [sodium lauryl sulfate], the HLB is given as 40.
